Measurements as given in patent publication US20020022633A1, “Inhibitors of prenyl-protein transferase” (priority 2000, published 2002).
Counter-ions that a name gives are not always drawn.

Molecular target: T1, human FPTase (Homo sapiens, UniProt P49354+P49356)
T1 construct: made in house
Assay: In vitro inhibition of ras farnesyl transferase (FPTase transferase assay)
Type: biochemical
Conditions: recombinant FPTase; 650 nM Ras-CVLS, 100 nM farnesyl diphosphate; 30° C.; read-out: IC50, inhibitory activity against human FPTase
Protocol: In vitro Inhibition of ras Farnesyl Transferase
Transferase Assays. Isoprenyl-protein transferase activity assays are carried out at 30° C. unless noted otherwise. A typical reaction contains (in a final volume of 50 µL): [^3H]farnesyl diphosphate, Ras protein , 50 mM HEPES, pH 7.5, 5 mM MgCl2, 5 mM dithiothreitol, 10 μM ZnCl2, 0.1% polyethyleneglycol (PEG) (15,000-20,000 mw) and isoprenyl-protein transferase. The FPTase employed in the assay is prepared by recombinant expression as described in Omer, C. A., Kral, A. M., Diehl, R. E., Prendergast, G. C., Powers, S., Allen, C. M., Gibbs, J. B. and Kohl, N. E. (1993) Biochemistry 32:5167-5176. After thermally pre-equilibrating the assay mixture in the absence of enzyme, reactions are initiated by the addition of isoprenyl-protein transferase and stopped at timed intervals (typically 15 min) by the addition of 1 M HCl in ethanol (1 mL). The quenched reactions are allowed to stand for 15 m (to complete the precipitation process). After adding 2 mL of 100% ethanol, the reactions are vacuum-filtered through Whatman GFIC filters. Filters are washed four times with 2 mL aliquots of 100% ethanol, mixed with scintillation fluid (10 mL) and then counted in a Beckman LS3801 scintillation counter. […]

IC50: ≤ 30 µM
Structure (SMILES): N#Cc1ccc2cc1Oc1ccc3ccc(=O)n(c3c1)-c1ccc(cn1)CCc1cncn1C2 [Example 1, 17-Oxo-22,23-dihydro-5H-12,14:18,21-dietheno-6,10-metheno-benzo[d]imidazo [4,3-l][1,5,7,13]oxatriazacyclononadecine-9-carbonitrile dihydrochloride]
